In data set [1] the target is T1, human adenosine A2A receptor (Homo sapiens, UniProt P29274).
T1 construct: expressed in transfected cells; host or cells: CHO cells, semliki forest virus expression system; washed membrane pellet used
Kind of data set: [3H]-SCH-58261 binding assay, human adenosine A2A receptor (CHO cell membranes, SPA). How it is done:
Human Adenosine A2A Receptor
The human adenosine A2A receptor was recombinantly expressed in chinese hamster ovary (CHO) cells using the semliki forest virus expression system. Cells were harvested, washed twice by centrifugation, homogenised and again washed by centrifugation. The final washed membrane pellet was suspended in a Tris (50 mM) buffer containing 120 mM NaCl, 5 mM KCl, 2 mM CaCl2 and 10 mM MgCl2 (pH 7.4) (buffer A). The [^3H]-SCH-58261 (Dionisotti et al., 1997, Br J Pharmacol 121, 353; 1 nM) binding assay was carried out in 96-well plates in the presence of 2.5 μg of membrane protein, 0.5 mg of Ysi-poly-1-lysine SPA beads and 0.1 U adenosine deaminase in a final volume of 200 μl of buffer A. Non-specific binding was defined using xanthine amine congener (XAC; 2 μM). Compounds were tested at 10 concentrations from 10 μM–0.3 nM. All assays were conducted in duplicate and repeated at least two times. Assay plates were incubated for 1 hour at room temperature before centrifugation and then bound ligand determined using a Packard Topcount scintillation counter. IC50 values, the concentration where 50% of the […] binding is displaced, were calculated using a non-linear curve fitting program and Ki values calculated using the Cheng-Prussoff equation.

Where [2] appears, read: displacement of [3H]-SCH-58261 (1 nM), recombinant receptor in CHO membranes, Ki by Cheng-Prussoff equation, read-out: hA2 (pKi) (converted).

In general, melting point refers to the temperature, or range, at which the solid turns liquid.

Molecules are shown by their SMILES. Read-outs that look alike come from different tables or passages of the source.

T1 sequence (P29274 whole entry): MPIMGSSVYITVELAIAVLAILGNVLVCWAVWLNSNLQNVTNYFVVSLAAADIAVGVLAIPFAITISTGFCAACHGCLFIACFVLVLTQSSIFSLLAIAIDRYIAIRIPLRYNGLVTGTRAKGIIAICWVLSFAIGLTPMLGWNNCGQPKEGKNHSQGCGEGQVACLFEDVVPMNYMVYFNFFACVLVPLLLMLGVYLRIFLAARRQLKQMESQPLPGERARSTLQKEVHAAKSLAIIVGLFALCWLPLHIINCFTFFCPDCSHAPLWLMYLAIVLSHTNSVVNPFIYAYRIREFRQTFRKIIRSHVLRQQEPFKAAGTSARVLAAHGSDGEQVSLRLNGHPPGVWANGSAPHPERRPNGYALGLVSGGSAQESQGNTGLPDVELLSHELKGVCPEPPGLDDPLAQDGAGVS

For `COc1ccc(N2CCOCC2)c2sc(NC(=O)NC3CCOCC3)nc12` [Example 2, 1-(4-Methoxy-7-morpholin-4-yl-benzothiazol-2-yl)-3-(tetrahydro-pyran-4-yl)-urea], in data set [1] (setting [2]), the Ki is 12.6 nM.
As for `COc1ccc(N2CCOCC2)c2sc(NC(=O)NC3CCCC3)nc12` [Example 37, 1-Cyclopentyl-3-(4-methoxy-7-morpholin-4-yl-benzothiazol-2-yl)-urea], the melting point lay within 191 to 194 °C. Besides, the Ki in data set [1] (setting [2]) was 7.94 nM.
As for `COc1ccc(N2CCOCC2)c2sc(NC(=O)N(C)C3CCC(F)(F)CC3)nc12` [Example 24, 1-(4,4-Difluoro-cyclohexyl)-3-(4-methoxy-7-morpholin-4-yl-benzothiazol-2-yl)-1-methyl-urea], the melting point fell in the range of 189 to 192 °C. The Ki in data set [1] (setting [2]) is 10 nM.
Consider `COc1ccc(N2CCOCC2)c2sc(NC(=O)N3CCN(c4ccccc4)CC3)nc12` [Example 7, 4-Phenyl-piperazine-1-carboxylic acid (4-methoxy-7-morpholin-4-yl-benzothiazol-2-yl)-amide], for which the Ki in data set [1] (setting [2]) was 7.94 nM.
Consider `COc1ccc(N2CCOCC2)c2sc(NC(=O)N3CCC4(CCNC4=O)CC3)nc12` [Example 5, 1-Oxo-2,8-diaza-spiro[4.5]decane-8-carboxylic acid (4-methoxy-7-morpholin-4-yl-benzothiazol-2-yl)-amide], for which, in data set [1] (setting [2]), the Ki was 6.31 nM.
On to `COc1ccc(N2CCOCC2)c2sc(NC(=O)N(C)[C@H]3CC[C@H](OC)CC3)nc12` [Example 32, (trans)-1-(4-Methoxy-cyclohexyl)-3-(4-methoxy-7-morpholin-4-yl-benzothiazol-2-yl)-1-methyl-urea], for which the melting point was in the range of 211 to 213 °C. In data set [1] (setting [2]), the Ki was 25.1 nM.
Taken in the same sequence, the figures for `COc1ccc(N2CCOCC2)c2sc(NC(=O)N(C)C3CCCCCC3)nc12` [Example 35, 1-Cycloheptyl-3-(4-methoxy-7-morpholin-4-yl-benzothiazol-2-yl)-1-methyl-urea] were 198 to 200 °C and 12.6 nM.
As to `COc1ccc(N2CCOCC2)c2sc(NC(=O)N3CCC4(CCCCC4)CC3)nc12` [Example 10, 3-Aza-spiro[5.5]undecane-3-carboxylic acid (4-methoxy-7-morpholin-4-yl-benzothiazol-2-yl)-amide], the Ki in data set [1] (setting [2]) was 10 nM.
With `COc1ccc(N2CCOCC2)c2sc(NC(=O)N3C[C@@H]4C[C@H]3CO4)nc12` [Example 1, (1S,4S)-2-Oxa-5-aza-bicyclo[2.2.1]heptane-5-carboxylic acid (4-methoxy-7-morpholin-4-yl-benzothiazol-2-yl)-amide], the Ki in data set [1] (setting [2]) is 3.16 nM.
In the case of `COc1ccc(N2CCOCC2)c2sc(NC(=O)N3CCC(CO)(Cc4ccccc4)CC3)nc12` [Example 8, 4-Benzyl-4-hydroxymethyl-piperidine-1-carboxylic acid (4-methoxy-7-morpholin-4-yl-benzothiazol-2-yl)-amide], the Ki in data set [1] (setting [2]) is 3.98 nM.
The molecule `COc1ccc(N2CCOCC2)c2sc(NC(=O)N3C[C@@H]4CC[C@H]3C4)nc12` [Example 33, (1S,4R)-2-Aza-bicyclo[2.2.1]heptane-2-carboxylic acid (4-methoxy-7-morpholin-4-yl-benzothiazol-2-yl)-amide] showed a melting point of 149 °C. In addition, the Ki in data set [1] (setting [2]) is 5.01 nM.
The like results for `COc1ccc(N2CCOCC2)c2sc(NC(=O)N(C)[C@H]3CC[C@@H](O)CC3)nc12` [Example 29, (cis)-1-(4-Hydroxy-cyclohexyl)-3-(4-methoxy-7-morpholin-4-yl-benzothiazol-2-yl)-1-methyl-urea] were, in that order, 169 to 171 °C and 12.6 nM.
Turning to `COc1ccc(N2CCOCC2)c2sc(NC(=O)N3CCC4(CCCC4)CC3)nc12` [Example 11, 8-Aza-spiro[4.5]decane-8-carboxylic acid (4-methoxy-7-morpholin-4-yl-benzothiazol-2-yl)-amide], in data set [1] (setting [2]), the Ki is 6.31 nM.
For the molecule `COc1ccc(N2CCOCC2)c2sc(NC(=O)N3[C@@H]4CC[C@H]3C[C@@H](O)C4)nc12` [Example 3, 3-endo-Hydroxy-8-aza-bicyclo[3.2.1]octane-8-carboxylic acid (4-methoxy-7-morpholin-4-yl-benzothiazol-2-yl)-amide], the Ki in data set [1] was 7.94 nM.
The molecule `COc1ccc(N2CCOCC2)c2sc(NC(=O)N(C)[C@H]3CC[C@@H](OC)CC3)nc12` [Example 25, (cis)-1-(4-Methoxy-cyclohexyl)-3-(4-methoxy-7-morpholin-4-yl-benzothiazol-2-yl)-1-methyl-urea] came in with a melting point of 198 to 200 °C. Further, the Ki in data set [1] (setting [2]) was 20 nM.
As for `O=C(Nc1nc2c(Cl)ccc(N3CCCCC3)c2s1)N1CCC(Cc2ccccc2)CC1` [Example 22, 4-Benzyl-piperidine-1-carboxylic acid (4-chloro-7-piperidin-1-yl-benzothiazol-2-yl)-amide], the Ki in data set [1] (setting [2]) is 15.8 nM.
Take `COc1ccc(N2CCOCC2)c2sc(NC(=O)N3CC4CCC3CC4)nc12` [Example 12, 2-Aza-bicyclo[2.2.2]octane-2-carboxylic acid (4-methoxy-7-morpholin-4-yl-benzothiazol-2-yl)-amide]: the Ki in data set [1] (setting [2]) is 2.51 nM.
Molecule `COc1ccc(N2CCOCC2)c2sc(NC(=O)N(C)[C@H]3CC[C@@H](F)CC3)nc12` [Example 23, 1-(4cis-Fluoro-cyclohexyl)-3-(4-methoxy-7-morpholin-4-yl-benzothiazol-2-yl)-1-methyl-urea] registered a melting point of 201 to 204 °C. In addition, the Ki in data set [1] (setting [2]) was 7.94 nM.
In the case of `COc1ccc(N2CCOCC2)c2sc(NC(=O)N3CC4CC[C@@](C)(C3)C4(C)C)nc12` [Example 26, (1R)-1,8,8-Trimethyl-3-aza-bicyclo[3.2.1]octane-3-carboxylic acid (4-methoxy-7-morpholin-4-yl-benzothiazol-2-yl)-amide], the melting point fell in the range of 185 to 189 °C.
On to `COc1ccc(N2CCOCC2)c2sc(NC(=O)N3CCC4(CCN(C)C4=O)CC3)nc12` [Example 4, 2-Methyl-1-oxo-2,8-diaza-spiro[4.5]decane-8-carboxylic acid (4-methoxy-7-morpholin-4-yl-benzothiazol-2-yl)-amide], for which the Ki in data set [1] (setting [2]) was 6.31 nM.
With `COc1ccc(N2CCOCC2)c2sc(NC(=O)N(C)[C@H]3CC[C@H](O)CC3)nc12` [Example 27, (trans)-1-(4-Hydroxy-cyclohexyl)-3-(4-methoxy-7-morpholin-4-yl-benzothiazol-2-yl)-1-methyl-urea], the melting point is 158 to 162 °C. Also, the Ki in data set [1] (setting [2]) is 12.6 nM.
On to `O=C(Nc1nc2c(Cl)ccc(N3CCCCC3)c2s1)NC1CCCCC1` [Example 21, 1-(4-Chloro-7-piperidin-1-yl-benzothiazol-2-yl)-3-cyclohexyl-urea], for which the Ki in data set [1] (setting [2]) is 2.51 nM.
Still for that read-out and setting: in the case of `COc1ccc(N2CCCCC2)c2sc(NC(=O)N3CCC4(CCCO4)CC3)nc12` [Example 19, 1-Oxa-8-aza-spiro[4.5]decane-8-carboxylic acid (4-methoxy-7-piperidin-1yl-benzothiazol-2-yl)-amide] it was 3.98 nM; in that of `Cc1ccc(CC2(O)CCN(C(=O)Nc3nc4c(Cl)ccc(N5CCCCC5)c4s3)CC2)cc1` [Example 20, 4-Hydroxy-4-(4-methyl-benzyl)-piperidine-1-carboxylic acid (4-chloro-7-piperidin-1-yl-benzothiazol-2-yl)-amide], 3.16 nM.
As for `COc1ccc(N2CCOCC2)c2sc(NC(=O)N3CCCOCC3)nc12` [Example 28, Oxazepane-4-carboxylic acid (4-methoxy-7-morpholin-4-yl-benzothiazol-2-yl)-amide], the “hA2 (pKi)” value in data set [1] (displacement of [3H]-SCH-58261 (1 nM), recombinant receptor in CHO membranes, Ki by Cheng-Prussoff equation) was determined as 7.9.
Regarding `COc1ccc(N2CCOCC2)c2sc(NC(=O)N3CCC(CNS(C)(=O)=O)CC3)nc12` [Example 16, 4-(Methanesulfonylamino-methyl)-piperidine-1-carboxylic acid (4-methoxy-7-morpholin-4-yl-benzothiazol-2-yl)-amide], the Ki in data set [1] (setting [2]) is 15.8 nM.
Still for that read-out and setting: with `COc1ccc(N2CCOCC2)c2sc(NC(=O)N(C)C3CCCCC3)nc12` [Example 9, 1-Cyclohexyl-3-(4-methoxy-7-morpholin-4-yl-benzothiazol-2-yl)-1-methyl-urea] the figure was 12.6 nM; with `COc1ccc(N2CCOCC2)c2sc(NC(=O)N3CCC([C@@H](C)O)CC3)nc12` [Example 14, (R)-4-(1-Hydroxy-ethyl)-piperidine-1-carboxylic acid (4-methoxy-7-morpholin-4-yl-benzothiazol-2-yl)-amide], 7.94 nM; with `COc1ccc(N2CCOCC2)c2sc(NC(=O)N3CCC([C@H](C)O)CC3)nc12` [Example 15, (S)-4-(1-Hydroxy-ethyl)-piperidine-1-carboxylic acid (4-methoxy-7-morpholin-4-yl-benzothiazol-2-yl)-amide], 7.94 nM.
On the same count and under the same terms, in the case of `COc1ccc(N2CCOCC2)c2sc(NC(=O)N3CCC4(CCCO4)CC3)nc12` [Example 13, 1-Oxa-8-aza-spiro[4.5]decane-8-carboxylic acid (4-methoxy-7-morpholin-4-yl-benzothiazol-2-yl)-amide] it was 2.51 nM.
